Data on 21 molecules can be found in patent publication US11649255B2, “Indazoles as hematopoietic progenitor kinase 1 (HPK1) inhibitors and methods using same” (1st Biotherapeutics, Inc., priority 2020, dated 2023).

recombinant human HPK1, sequence (Q92918 whole entry): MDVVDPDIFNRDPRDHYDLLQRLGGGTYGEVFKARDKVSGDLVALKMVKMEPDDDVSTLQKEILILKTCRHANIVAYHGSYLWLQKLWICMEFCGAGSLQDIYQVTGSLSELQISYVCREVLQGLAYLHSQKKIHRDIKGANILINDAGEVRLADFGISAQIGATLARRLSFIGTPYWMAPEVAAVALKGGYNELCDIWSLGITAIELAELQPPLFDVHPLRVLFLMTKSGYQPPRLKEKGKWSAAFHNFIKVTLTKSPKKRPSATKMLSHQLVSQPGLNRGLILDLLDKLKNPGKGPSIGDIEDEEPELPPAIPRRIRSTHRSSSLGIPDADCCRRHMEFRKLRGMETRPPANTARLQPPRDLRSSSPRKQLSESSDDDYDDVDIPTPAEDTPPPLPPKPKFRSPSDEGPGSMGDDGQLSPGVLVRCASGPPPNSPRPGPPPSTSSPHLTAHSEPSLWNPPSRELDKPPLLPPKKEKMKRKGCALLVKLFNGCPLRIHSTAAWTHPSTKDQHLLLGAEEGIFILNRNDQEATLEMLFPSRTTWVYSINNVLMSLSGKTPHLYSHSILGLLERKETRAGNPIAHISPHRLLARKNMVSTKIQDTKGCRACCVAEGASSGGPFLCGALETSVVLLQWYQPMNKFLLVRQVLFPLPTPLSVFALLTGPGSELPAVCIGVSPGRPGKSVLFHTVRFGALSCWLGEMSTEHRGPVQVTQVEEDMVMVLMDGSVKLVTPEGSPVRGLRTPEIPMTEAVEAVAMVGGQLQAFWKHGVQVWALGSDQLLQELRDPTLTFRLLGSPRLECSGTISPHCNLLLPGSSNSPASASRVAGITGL

The test addresses recombinant human HPK1 (Homo sapiens (Human), UniProt Q92918). As to the kind of experiment: HPK1 kinase assay (ADP-Glo). Type of test: biochemical. Particulars: 25 μM ATP, MBP substrate. The protocol: HPK1 kinase activity was measured by Promega's ADP-Glo™ kinase assay. In this assay, 5 ng of recombinant human HPK1 (signalchem) is incubated with 5 μL of compounds (0.5% DMSO), 5 μL of MBP (0.5 μg/μl) and 5 μL of ATP (25 μM) in buffer (40 mM Tris, 7.5; 20 mM MgCl2; 0.1 mg/ml BSA; 5 μM DTT). The assay was started by incubating the reaction mixture in a 96-well plate at 30′ C for 40 minutes. After the incubation, 25 uL ADP-Glo reagent was added and the reaction was incubated at room temperature for 40-min to stop the reaction and degrade residual ATP. The ADP product was then converted to ATP by adding 50 uL per well of detection reagent. Luminescence was detected after 30-min room temperature incubation with the Molecular device I3X plate reader. The IC50 values were calculated from a series of percent inhibition values determined at a range of inhibitor concentration using software routines as implemented in the GraphPad Prism 7 software and SigmaPlot13.0.
Regarding `CCc1c(F)c(F)c2[nH]ncc2c1-c1ccc2nc(NC(=O)[C@@H]3C[C@@H]3F)sc2n1` [Example 176, (1S,2S)-N-(5-(5-ethyl-6,7-difluoro-1H-indazol-4-yl)thiazolo[5,4-b]pyridin-2-yl)-2-fluorocyclopropane-1-carboxamide], the IC50 was below 0.1 µM.

With `COc1c(F)c(C)c(-c2ccn3nc(NC(=O)[C@@H]4C[C@@H]4F)cc3c2)c2cn[nH]c12` [Example 491, (1S,2S)-2-fluoro-N-(5-(6-fluoro-7-methoxy-5-methyl-1H-indazol-4-yl)pyrazolo[1,5-a]pyridin-2-yl)cyclopropane-1-carboxamide], the IC50 is below 0.1 µM.

For `CN(c1c(F)c(Cl)c(-c2ccn3nc(NC(=O)[C@@H]4C[C@@H]4F)cc3c2)c2cn[nH]c12)C1CCC(N)CC1` (stereo partly drawn) [Example 514], the IC50 is below 0.1 µM.

With `CC(C)c1c(F)cc2[nH]ncc2c1-c1ccc2nc(NC(=O)[C@@H]3C[C@@H]3F)sc2n1` [Example 150, (1S,2S)-2-fluoro-N-(5-(6-fluoro-5-isopropyl-1H-indazol-4-yl)thiazolo[5,4-b]pyridin-2-yl)cyclopropane-1-carboxamide], the IC50 is below 0.1 µM.

With `Cc1c(F)c(Cl)c2[nH]ncc2c1-c1ccc2nc(NC(=O)[C@@H]3C[C@@H]3F)sc2c1` [Example 51, (1S,2S)-N-(6-(7-chloro-6-fluoro-5-methyl-1H-indazol-4-yl)benzo[d]thiazol-2-yl)-2-fluorocyclopropane-1-carboxamide], the IC50 is below 0.1 µM.

Consider `CC(=O)c1c(F)c(C)c(-c2ccc3nc(NC(=O)[C@@H]4C[C@@H]4F)cn3c2)c2cn[nH]c12` [Example 322, (1S,2S)-N-(6-(7-acetyl-6-fluoro-5-methyl-1H-indazol-4-yl)imidazo[1,2-a]pyridin-2-yl)-2-fluorocyclopropane-1-carboxamide], for which the IC50 was 0.101 to 0.5 µM.

On to `CN(C)C1CCC(N(C)c2c(F)c(Cl)c(-c3ccn4nc(NC(=O)[C@@H]5C[C@@H]5F)cc4c3)c3cn[nH]c23)CC1` (stereo partly drawn) [Example 502, (1S,2S)-N-(5-(5-chloro-7-((4-(dimethylamino)cyclohexyl)(methyl)amino)-6-fluoro-1H-indazol-4-yl)pyrazolo[1,5-a]pyridin-2-yl)-2-fluorocyclopropane-1-carboxamide], for which the IC50 was below 0.1 µM.

With `CC(C)Oc1c(F)c(Cl)c(-c2ccc3nc(NC(=O)[C@@H]4C[C@@H]4F)cn3c2)c2cn[nH]c12` [Example 404, (1S,2S)-N-(6-(5-chloro-6-fluoro-7-isopropoxy-1H-indazol-4-yl)imidazo[1,2-a]pyridin-2-yl)-2-fluorocyclopropane-1-carboxamide], the IC50 was below 0.1 µM.

As to `O=C(Nc1nc2ccc(-c3c(Cl)c(F)c(C(F)F)c4[nH]ncc34)nc2s1)[C@@H]1C[C@@H]1F` [Example 209, (1S,2S)-N-(5-(5-chloro-7-(difluoromethyl)-6-fluoro-1H-indazol-4-yl)thiazolo[5,4-b]pyridin-2-yl)-2-fluorocyclopropane-1-carboxamide], the IC50 was below 0.1 µM.

`CC(C#N)Nc1c(F)c(Cl)c(-c2ccc3nc(NC(=O)[C@@H]4C[C@@H]4F)cn3c2)c2cn[nH]c12` (stereo partly drawn) [Example 371, (1S,2S)-N-(6-(5-chloro-7-((1-cyanoethyl)amino)-6-fluoro-1H-indazol-4-yl)imidazo[1,2-a]pyridin-2-yl)-2-fluorocyclopropane-1-carboxamide]: the IC50 is below 0.1 µM.

Consider `CN(C(=O)O)C1CN(c2c(F)c(Cl)c(-c3ccc4nc(NC(=O)[C@@H]5C[C@@H]5F)sc4c3)c3cn[nH]c23)C1` [Example 89, (1-(5-chloro-6-fluoro-4-(2-((1S,2S)-2-fluorocyclopropane-1-carboxamido)benzo[d]thiazol-6-yl)-1H-indazol-7-yl)azetidin-3-yl)(methyl)carbamic acid], for which the IC50 was below 0.1 µM.

With `CN(Nc1c(F)c(Cl)c(-c2ccn3nc(NC(=O)[C@@H]4C[C@@H]4F)cc3c2)c2cn[nH]c12)C(=O)OC(C)(C)C` [Example 542, tert-butyl 2-(5-chloro-6-fluoro-4-(2-((1S,2S)-2-fluorocyclopropane-1-carboxamido)pyrazolo[1,5-a]pyridin-5-yl)-1H-indazol-7-yl)-1-methylhydrazine-1-carboxylate], the half-inhibitory concentration (IC50) is below 0.1 µM.

On to `COC[C@@H](C)c1c(F)c(Cl)c(-c2ccc3nc(NC(=O)[C@@H]4C[C@@H]4F)cn3c2)c2cn[nH]c12` [Example 423, (1S,2S)-N-(6-(5-chloro-6-fluoro-7-((S)-1-methoxypropan-2-yl)-1H-indazol-4-yl)imidazo[1,2-a]pyridin-2-yl)-2-fluorocyclopropane-1-carboxamide], for which the IC50 was below 0.1 µM.

For `COC[C@@H](C)c1c(F)c(Cl)c(-c2ccn3nc(NC(=O)[C@@H]4C[C@@H]4F)cc3c2)c2cn[nH]c12` [Example 656, (1S,2S)-N-(5-(5-chloro-6-fluoro-7-((S)-1-methoxypropan-2-yl)-1H-indazol-4-yl)pyrazolo[1,5-a]pyridin-2-yl)-2-fluorocyclopropane-1-carboxamide], the concentration for half-maximal inhibition (IC50) is below 0.1 µM.

With `Cc1c(F)cc2[nH]nc(Cl)c2c1-c1ccc2nc(NC(=O)[C@@H]3C[C@@H]3F)sc2c1` [Example 44, (1S,2S)-N-(6-(3-chloro-6-fluoro-5-methyl-1H-indazol-4-yl)benzo[d]thiazol-2-yl)-2-fluorocyclopropane-1-carboxamide], the concentration for half-maximal inhibition (IC50) fell in the range of 0.501 to 1 µM.

As for `CCOc1cc(C)c(-c2ccc3nc(NC(=O)[C@@H]4C[C@@H]4F)cn3c2)c2cn[nH]c12` [Example 287, (1S,2S)-N-(6-(7-ethoxy-5-methyl-1H-indazol-4-yl)imidazo[1,2-a]pyridin-2-yl)-2-fluorocyclopropane-1-carboxamide], the 50% inhibitory concentration (IC50) is below 0.1 µM.

As for `CCOc1cc(C)c(-c2ccn3nc(NC(=O)[C@@H]4C[C@@H]4F)cc3c2)c2cn[nH]c12` [Example 511, (1S,2S)-N-(5-(7-ethoxy-5-methyl-1H-indazol-4-yl)pyrazolo[1,5-a]pyridin-2-yl)-2-fluorocyclopropane-1-carboxamide], the IC50 is below 0.1 µM.

As to `CCNc1c(F)c(Cl)c(-c2ccn3nc(NC(=O)[C@@H]4C[C@@H]4F)cc3c2)c2cn[nH]c12` [Example 496, (1S,2S)-N-(5-(5-chloro-7-(ethylamino)-6-fluoro-1H-indazol-4-yl)pyrazolo[1,5-a]pyridin-2-yl)-2-fluorocyclopropane-1-carboxamide], the IC50 is below 0.1 µM.

In the case of `CCOc1c(F)c(SC)c2[nH]ncc2c1-c1ccn2nc(NC(=O)[C@@H]3C[C@@H]3F)cc2c1` [Example 606, (1S,2S)-N-(5-(5-ethoxy-6-fluoro-7-(methylthio)-1H-indazol-4-yl)pyrazolo[1,5-a]pyridin-2-yl)-2-fluorocyclopropane-1-carboxamide], the IC50 is below 0.1 µM.

As to `CNC(=O)c1c(F)c(C)c(-c2ccc3nc(NC(=O)[C@@H]4C[C@@H]4F)cn3c2)c2cn[nH]c12` [Example 338, 6-fluoro-4-(2-((1S,2S)-2-fluorocyclopropane-1-carboxamido)imidazo[1,2-a]pyridin-6-yl)-N,5-dimethyl-1H-indazole-7-carboxamide], the IC50 fell in the range of 0.101 to 0.5 µM.

Consider `O=C(Nc1cn2cc(-c3c(Cl)c(F)c(N4CCCC4)c4[nH]ncc34)ccc2n1)[C@@H]1C[C@@H]1F` [Example 282, (1S,2S)-N-(6-(5-chloro-6-fluoro-7-(pyrrolidin-1-yl)-1H-indazol-4-yl)imidazo[1,2-a]pyridin-2-yl)-2-fluorocyclopropane-1-carboxamide], for which the concentration for half-maximal inhibition (IC50) was below 0.1 µM.
